Assay results: patent publication US6281201A, “Base-modified derivatives of 2',5'-oligoadenylate and antiviral uses thereof” (Temple University- of the Commonwealth System of Higher …, priority 1999, dated 2001)

Tests used:
[1] = tested on: HIV-1 reverse-transcriptase; assay: Inhibition of HIV-1 reverse-transcriptase (RT) activity in culture supernatant of infected Sup T1 cells; assay type: cell-based; conditions: 300 μM, 6 h pretreatment of Sup T1 cells; supernatant 96 h post-infection; mean of duplicates, variance did not exceed 5-10%
Method: (§1) Three studies were performed to determine the antiviral activity of the (2'-5')oligonucleotide derivatives of the present invention: (i) inhibition of HIV-1-replication, (ii) inhibition of HIV-1 reverse-transcriptase (RT) activity, and (iii) activation of recombinant human GST-RNase L. All compounds were tested at a concentration of 300 μM.
Sup T1 cells were treated with trimer core compound at 300 μM for 6 hours and then infected with HIV-1 at a multiplicity of infection of approximately 0.1. At 96 hours post-infection, culture supernatant was removed and HIV-1 RT activity was assayed […] as described by Henderson et al., Virology 1991, 182, 186. Briefly in this method, 25 μl of culture supernatant was added to a 50 μl cocktail containing 50 mM Tris (pH 8.0), 20 mM dithiothreitol, 10 mM MgCl2, 60 mM NaCl, 0.05% Nonidet p-40, 5 μg/ml oligodeoxythymidylic acid, 10 μg/ml polyriboadenylic acid, 10 μM deoxythymidine triphosphate and 1mCi [α^32 P]thymidine 5'-triphosphate. The mixture was incubated at 37° C. for 2 hours. Fifty microliters of the cocktail were then spotted onto diethylaminoethyl (DEAE) paper, dried, washed with 2×SSC solution (three times for 10 minutes each time) and 95% ethanol (two times for 5 minutes each time), dried and exposed to radiographic film for 18 to 24 hours at -80° C. The filters were cut and final quantitation was determined by scintillation spectrometry.
The data for the HIV-1 RT activity is shown in Table 1 as a percent of RT activity. Control values for RT activity ranged from 15,000 to 16,000 dpm [α^32 P] incorporated.
^c Percent inhibition of reverse-transcriptase (HIV-1 RT) activity.
Control values for HIV-1 RT activity ranged from 15000 to 16000 dpm
incorporated. The mean of duplicate determinations is shown; variance did

[2] = tested on: recombinant human GST-RNase L; assay: Activation of recombinant human GST-RNase L (hydrolysis of poly(U)-3'-[^32 P]pCp); assay type: biochemical; conditions: 300 μM; mean of duplicates, variance did not exceed 5-10%
Method: as §1
Human recombinant RNase L was expressed in E. coli(DH5α) as a fusion protein of glutathione-S-transferase (GST). Activation of human recombinant GST-RNase L was measured as the percent of poly(U)[^32 P]pCp hydrolyzed in the presence of authentic 2',5'-oligoadenylate trimer core or trimer core analog of the invention as described by Sobol et al., J. Biol. Chem. 1995, 270, 5963. The data is shown in Table 1 as the mean of duplicate determinations.
^d The activation of recombinant human RNase L was measured as the
percent hydrolysis of poly(U)-3'-[^32 P]pCp in the presence of the
trimers 22-29. The mean of duplicate determinations is shown; variance did

HIV-1 = assay: Inhibition of HIV-1 replication: infected centers assay, HIV-1-induced syncytia formation; assay type: cell-based, HIV-1 strain IIIB; conditions: 300 μM (table footnote: 300 μm [sic]); PBL treated 2 h, HIV-1 IIIB MOI approx. 0.1; Sup T1 cells, read at 72 hours; mean of triplicates, variance did not exceed 5-10%
Method: as §1
The infected centers assay as described by Henderson et al., Virology 1991, 182, 186, was used to measure the ability of the trimer core compounds of the invention to inhibit HIV-1 induced syncytia formation, an indicator of HIV-1 replication in T cells. Freshly isolated peripheral blood lymphocytes (PBL) were treated with 2-5A trimer or derivatives for 2 hours and infected with HIV-1 strain IIIB at a multiplicity of infection of approximately 0.1. The infected PBL were maintained in RPMI-1640 medium supplemented with 10% (v/v) heat-inactivated fetal calf serum at 37° C. in a humidified 5% CO2 in air atmosphere. After 48 hours, the cells were washed twice in Hank's balanced salt solution, serially diluted and seeded into multiple wells of a 96-well microtiter plate. Immediately, 2×10^5 exponentially growing Sup T1 cells were added to each well; Sup T1 cells readily form a syncytium with a cell which is productively infected with HIV-1. The wells were examined daily for the presence of syncytia, using a tissue culture microscope. The first signs of syncytia formation can be seen in 12 hours, with some complete syncytia developing by 24 hours. Final results were read at 72 hours. Each syncytium was counted as a single infected cell. The number of syncytia per seeded cell is determined and expressed as an infected center per infected cell. The number of syncytia per 10^4 cells was 121±16 for the control Sup T1 cells.
^b Inhibition of HIV-1 replication was determined by HIV-1-induced
syncytia formation (fold reduction) for each compound. The number of
syncytia/10^4 cells was 121 ± 16 for the control Sup T1 cells. The

| Substance | RT: percent inhibition of reverse-transcriptase (HIV-1 RT) activity [1] | RNase L: activation of recombinant human RNase L, percent hydrolysis of poly(U)-3'-[^32 P]pCp [2] | Syn: inhibition of HIV-1 replication, HIV-1-induced syncytia formation (fold reduction) (HIV-1) |
| --- | --- | --- | --- |
| 1-(β-D-Ribofuranosyl)-1H-1,2,4-triazole-3-carboxamide]yl-(2'-5')-adenylyl-(2'-5')-adenosine Bis(triethylammonium) Salt [Compound 28] | 99.5% | 0% | 1.2 fold |
| Adenylyl-(2'-5')-N^6 -benzyladenylyl-(2'-5')-adenosine Bis(triethylammonium) Salt [Compound 23] | 7.6% | 34.8% | > 1500 fold |
| Adenylyl-(2'-5')-[1-(β-D-ribofuranosyl)-1H-1,2,4-triazole-3-carboxamide]yl-(2'-5')-adenosine Bis(triethylammonium) Salt [Compound 27] | 99.7% | 9.4% | 7.0 fold |
| Adenylyl-(2'-5')-adenylyl-(2'-5')-1-(β-D-ribofuranosyl)-1H-1,2,4-triazole-3-carboxamide Bis(triethylammonium) Salt [Compound 26] | 99.7% | 87.7% | 1.6 fold |
| Adenylyl-(2'-5')-adenylyl-(2'-5')-N^6 -benzyladenosine Bis(triethylammonium) Salt [Compound 22] | 33% | 37.4% | > 1500 fold |
| N^6 -Benzyladenylyl-(2'-5')-N^6 -benzyladenylyl-(2'-5')-N^6 -benzyladenosine Bis(triethylammonium) Salt [Compound 25] | 10.6% | 13.6% | > 1500 fold |
| N^6 -Benzyladenylyl-(2'-5')-adenylyl-(2'-5')-adenosine Bis(triethylammonium) Salt [Compound 24] | 16.7% | 0% | > 1500 fold |
